Here are results for 25 compounds from ChEMBL document CHEMBL4118225, “Development, Optimization, and Structure-Activity Relationships of Covalent-Reversible JAK3 Inhibitors Based on a Tricyclic Imidazo[5,4- d]pyrrolo[2,3- b]pyridine Scaffold” (J Med Chem, 2018).

In brackets after ≈: the same amount, converted by molar mass.

The target in series [1] is T1, Tyrosine-protein kinase JAK1 (Homo sapiens, UniProt P23458).
Description: Inhibition of human JAK1 using poly[Glu:Tyr] (4:1) as substrate in presence of 10 uM [gamma33P]ATP by radiometric method
Series [2] has as its target Non-receptor tyrosine-protein kinase TYK2 (Homo sapiens, UniProt P29597).
In series [3] the target is T2, Tyrosine-protein kinase JAK3 (Homo sapiens, UniProt P52333).
T2 sequence (P52333 whole entry): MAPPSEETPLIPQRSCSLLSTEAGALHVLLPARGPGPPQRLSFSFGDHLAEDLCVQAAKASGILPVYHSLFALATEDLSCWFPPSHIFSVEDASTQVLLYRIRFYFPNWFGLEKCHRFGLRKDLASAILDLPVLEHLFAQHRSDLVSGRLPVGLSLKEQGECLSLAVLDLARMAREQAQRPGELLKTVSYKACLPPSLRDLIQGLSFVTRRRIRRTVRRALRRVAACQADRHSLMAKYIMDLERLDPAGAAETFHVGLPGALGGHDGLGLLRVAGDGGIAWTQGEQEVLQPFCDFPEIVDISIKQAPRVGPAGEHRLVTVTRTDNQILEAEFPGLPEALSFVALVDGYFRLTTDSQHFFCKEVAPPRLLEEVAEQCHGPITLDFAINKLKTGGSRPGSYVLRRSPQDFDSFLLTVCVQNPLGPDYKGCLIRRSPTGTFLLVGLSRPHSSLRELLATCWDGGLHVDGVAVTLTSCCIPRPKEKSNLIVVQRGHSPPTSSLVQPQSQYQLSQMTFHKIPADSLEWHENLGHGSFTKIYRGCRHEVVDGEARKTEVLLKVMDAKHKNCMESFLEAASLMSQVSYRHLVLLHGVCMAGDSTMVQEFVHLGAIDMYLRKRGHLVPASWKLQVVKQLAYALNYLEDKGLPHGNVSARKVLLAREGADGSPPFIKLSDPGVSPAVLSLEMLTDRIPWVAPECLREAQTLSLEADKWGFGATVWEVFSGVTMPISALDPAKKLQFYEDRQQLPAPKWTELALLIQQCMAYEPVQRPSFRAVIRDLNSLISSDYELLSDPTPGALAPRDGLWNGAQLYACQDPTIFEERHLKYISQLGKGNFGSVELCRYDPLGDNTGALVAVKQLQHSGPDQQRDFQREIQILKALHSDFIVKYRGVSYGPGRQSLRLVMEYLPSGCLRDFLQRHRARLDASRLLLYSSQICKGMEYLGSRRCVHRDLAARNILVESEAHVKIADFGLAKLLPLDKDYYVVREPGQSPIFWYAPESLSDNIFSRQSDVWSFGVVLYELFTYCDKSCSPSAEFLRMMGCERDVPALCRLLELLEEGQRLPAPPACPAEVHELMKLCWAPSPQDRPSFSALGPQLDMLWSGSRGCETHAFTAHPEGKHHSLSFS
Description: Inhibition of recombinant human JAK3 (781 to 1124 residues) expressed in baculovirus expression system assessed as reduction in polypeptide substrate phosphorylation in presence of ATP by ELISA

Series [4] can be described thus: Thiol reactivity in kinase assay buffer in presence of DTT. The format is physicochemical.
In series [5] the target is T2, Tyrosine-protein kinase JAK3. The source holds these as a separate data set.
Series [6] deals with T3, Tyrosine-protein kinase JAK2 (Homo sapiens, UniProt O60674). The series can be described thus: Inhibition of kinase tracer-05 binding to C-terminal NanoLuc tagged full length JAK2 (unknown origin) expressed in HEK cells by NanoBRET assay. The format is cell-based. (BRET reads energy transfer from a luciferase to a nearby fluorophore.)
T3 sequence (O60674 whole entry): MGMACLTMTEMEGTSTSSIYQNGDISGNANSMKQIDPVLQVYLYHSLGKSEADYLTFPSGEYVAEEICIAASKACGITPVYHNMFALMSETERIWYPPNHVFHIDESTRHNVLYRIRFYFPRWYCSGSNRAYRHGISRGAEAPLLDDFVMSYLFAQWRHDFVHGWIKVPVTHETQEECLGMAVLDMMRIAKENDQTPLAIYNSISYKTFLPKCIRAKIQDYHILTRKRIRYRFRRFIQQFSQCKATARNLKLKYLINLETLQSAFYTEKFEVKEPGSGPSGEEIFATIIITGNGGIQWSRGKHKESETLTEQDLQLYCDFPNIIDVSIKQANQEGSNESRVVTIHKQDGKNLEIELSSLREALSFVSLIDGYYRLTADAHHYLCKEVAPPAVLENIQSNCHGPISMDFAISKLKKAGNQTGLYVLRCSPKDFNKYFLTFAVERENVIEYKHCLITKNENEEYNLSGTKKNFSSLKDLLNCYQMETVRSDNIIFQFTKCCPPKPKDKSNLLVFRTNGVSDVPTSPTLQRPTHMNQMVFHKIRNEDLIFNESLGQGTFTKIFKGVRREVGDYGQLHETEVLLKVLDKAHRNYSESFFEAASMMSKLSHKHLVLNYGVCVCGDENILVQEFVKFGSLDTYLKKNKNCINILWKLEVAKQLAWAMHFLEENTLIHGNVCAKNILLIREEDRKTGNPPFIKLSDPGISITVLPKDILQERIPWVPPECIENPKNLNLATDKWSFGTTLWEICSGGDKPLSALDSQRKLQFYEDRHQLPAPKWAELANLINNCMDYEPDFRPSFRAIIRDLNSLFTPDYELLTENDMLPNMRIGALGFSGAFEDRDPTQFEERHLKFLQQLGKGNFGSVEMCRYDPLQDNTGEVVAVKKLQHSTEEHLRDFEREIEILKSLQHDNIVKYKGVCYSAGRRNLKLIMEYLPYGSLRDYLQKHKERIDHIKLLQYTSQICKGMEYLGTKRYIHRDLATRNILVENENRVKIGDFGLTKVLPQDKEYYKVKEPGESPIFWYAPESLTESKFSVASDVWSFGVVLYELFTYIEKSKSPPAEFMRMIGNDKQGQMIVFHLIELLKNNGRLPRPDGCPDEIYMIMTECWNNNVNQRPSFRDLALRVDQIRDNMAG
Series [7] concerns the target Tyrosine-protein kinase BTK (Homo sapiens, UniProt Q06187). The series can be described thus: Inhibition of kinase tracer-05 binding to C-terminal NanoLuc tagged full length BTK (unknown origin) expressed in HEK cells by NanoBRET assay. Type of series: cell-based.
A short description of series [8]: Metabolic stability in mouse liver microsomes assessed as parent compound remaining at 100 uM after 180 mins in presence of NADPH regenerating system by LC-MS analysis. Type of series: ADME, microsome. The note with it: read-out: Stability. (Liver microsomes are vesicles of endoplasmic reticulum, rich in cytochrome P450 enzymes.)
Series [9] in a line: Metabolic stability in human whole blood assessed as parent compound remaining at 1 uM after 180 mins by LC-MS analysis. Type of series: ADME, tissue-based. As to conditions: read-out: Stability.
For series [10], the target named is T3, Tyrosine-protein kinase JAK2.
Description: Inhibition of human JAK2 using poly[Glu:Tyr] (4:1) as substrate in presence of 10 uM [gamma33P]ATP by radiometric method
Series [11] deals with T1, Tyrosine-protein kinase JAK1. The source holds these as a separate data set.
Description: Inhibition of kinase tracer-04 binding to C-terminal NanoLuc tagged full length JAK1 (unknown origin) expressed in HEK cells by NanoBRET assay
In series [12] the target is T2, Tyrosine-protein kinase JAK3. This is another data set of the same source.
Description: Inhibition of kinase tracer-05 binding to C-terminal NanoLuc tagged full length JAK3 (unknown origin) expressed in HEK cells by NanoBRET assay
Series [13] in a line: Aqueous solubility in pH 7.4 PBS buffer by HPLC analysis. Type of series: physicochemical.
Series [14] in a line: Half life in human whole blood at 1 uM by LC-MS analysis. Type of series: ADME, tissue-based.
Series [15] can be described thus: Aqueous solubility in HEPES buffer. Type of series: physicochemical.

T1 sequence (P23458 whole entry): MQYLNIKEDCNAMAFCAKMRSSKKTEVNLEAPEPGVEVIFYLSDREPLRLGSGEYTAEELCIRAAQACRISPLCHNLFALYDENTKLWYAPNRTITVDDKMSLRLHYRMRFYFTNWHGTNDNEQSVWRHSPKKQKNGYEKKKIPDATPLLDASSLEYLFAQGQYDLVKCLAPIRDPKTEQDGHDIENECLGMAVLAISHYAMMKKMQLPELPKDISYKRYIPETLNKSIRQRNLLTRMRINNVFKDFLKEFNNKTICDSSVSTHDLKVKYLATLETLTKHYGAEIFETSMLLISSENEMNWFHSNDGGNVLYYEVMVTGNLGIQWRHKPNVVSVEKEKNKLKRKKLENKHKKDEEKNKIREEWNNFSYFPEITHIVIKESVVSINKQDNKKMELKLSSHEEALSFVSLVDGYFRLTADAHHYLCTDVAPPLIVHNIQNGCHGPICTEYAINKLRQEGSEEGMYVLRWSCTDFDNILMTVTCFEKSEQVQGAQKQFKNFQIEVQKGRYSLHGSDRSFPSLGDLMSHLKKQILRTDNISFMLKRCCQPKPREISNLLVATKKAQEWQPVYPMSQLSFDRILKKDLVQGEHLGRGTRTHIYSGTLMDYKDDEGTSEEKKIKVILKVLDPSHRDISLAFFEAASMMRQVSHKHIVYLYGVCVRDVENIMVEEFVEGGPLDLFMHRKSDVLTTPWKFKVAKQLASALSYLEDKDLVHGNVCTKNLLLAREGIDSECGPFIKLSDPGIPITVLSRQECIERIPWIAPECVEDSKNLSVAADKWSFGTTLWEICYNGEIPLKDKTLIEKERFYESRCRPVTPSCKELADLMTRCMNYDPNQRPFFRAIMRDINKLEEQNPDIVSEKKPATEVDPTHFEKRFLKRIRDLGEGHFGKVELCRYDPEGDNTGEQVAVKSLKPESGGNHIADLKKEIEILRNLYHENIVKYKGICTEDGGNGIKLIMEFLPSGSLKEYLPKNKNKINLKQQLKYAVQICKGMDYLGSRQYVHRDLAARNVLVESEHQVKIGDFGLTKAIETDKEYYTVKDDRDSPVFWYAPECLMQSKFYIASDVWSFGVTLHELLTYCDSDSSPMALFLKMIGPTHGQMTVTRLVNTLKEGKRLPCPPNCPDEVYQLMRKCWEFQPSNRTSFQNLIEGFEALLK
Tyrosine-protein kinase BTK, sequence (Q06187 whole entry): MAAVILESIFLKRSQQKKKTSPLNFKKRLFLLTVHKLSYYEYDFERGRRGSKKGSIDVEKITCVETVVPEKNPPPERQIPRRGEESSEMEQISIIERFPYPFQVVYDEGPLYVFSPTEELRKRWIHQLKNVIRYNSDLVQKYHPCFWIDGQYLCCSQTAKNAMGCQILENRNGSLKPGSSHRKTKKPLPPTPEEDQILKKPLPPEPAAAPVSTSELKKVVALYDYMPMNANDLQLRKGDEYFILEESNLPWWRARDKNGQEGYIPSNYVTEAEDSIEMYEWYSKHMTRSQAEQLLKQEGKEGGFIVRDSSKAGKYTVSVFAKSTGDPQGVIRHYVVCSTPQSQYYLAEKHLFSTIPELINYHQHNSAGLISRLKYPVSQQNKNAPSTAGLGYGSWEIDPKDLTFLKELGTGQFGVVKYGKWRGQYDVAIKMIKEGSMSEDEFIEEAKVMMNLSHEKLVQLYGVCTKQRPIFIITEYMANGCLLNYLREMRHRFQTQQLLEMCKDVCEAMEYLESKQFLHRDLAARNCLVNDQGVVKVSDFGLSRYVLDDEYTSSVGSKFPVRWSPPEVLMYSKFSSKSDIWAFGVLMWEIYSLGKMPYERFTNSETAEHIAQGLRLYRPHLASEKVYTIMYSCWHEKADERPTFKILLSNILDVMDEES
Non-receptor tyrosine-protein kinase TYK2, sequence (P29597 whole entry): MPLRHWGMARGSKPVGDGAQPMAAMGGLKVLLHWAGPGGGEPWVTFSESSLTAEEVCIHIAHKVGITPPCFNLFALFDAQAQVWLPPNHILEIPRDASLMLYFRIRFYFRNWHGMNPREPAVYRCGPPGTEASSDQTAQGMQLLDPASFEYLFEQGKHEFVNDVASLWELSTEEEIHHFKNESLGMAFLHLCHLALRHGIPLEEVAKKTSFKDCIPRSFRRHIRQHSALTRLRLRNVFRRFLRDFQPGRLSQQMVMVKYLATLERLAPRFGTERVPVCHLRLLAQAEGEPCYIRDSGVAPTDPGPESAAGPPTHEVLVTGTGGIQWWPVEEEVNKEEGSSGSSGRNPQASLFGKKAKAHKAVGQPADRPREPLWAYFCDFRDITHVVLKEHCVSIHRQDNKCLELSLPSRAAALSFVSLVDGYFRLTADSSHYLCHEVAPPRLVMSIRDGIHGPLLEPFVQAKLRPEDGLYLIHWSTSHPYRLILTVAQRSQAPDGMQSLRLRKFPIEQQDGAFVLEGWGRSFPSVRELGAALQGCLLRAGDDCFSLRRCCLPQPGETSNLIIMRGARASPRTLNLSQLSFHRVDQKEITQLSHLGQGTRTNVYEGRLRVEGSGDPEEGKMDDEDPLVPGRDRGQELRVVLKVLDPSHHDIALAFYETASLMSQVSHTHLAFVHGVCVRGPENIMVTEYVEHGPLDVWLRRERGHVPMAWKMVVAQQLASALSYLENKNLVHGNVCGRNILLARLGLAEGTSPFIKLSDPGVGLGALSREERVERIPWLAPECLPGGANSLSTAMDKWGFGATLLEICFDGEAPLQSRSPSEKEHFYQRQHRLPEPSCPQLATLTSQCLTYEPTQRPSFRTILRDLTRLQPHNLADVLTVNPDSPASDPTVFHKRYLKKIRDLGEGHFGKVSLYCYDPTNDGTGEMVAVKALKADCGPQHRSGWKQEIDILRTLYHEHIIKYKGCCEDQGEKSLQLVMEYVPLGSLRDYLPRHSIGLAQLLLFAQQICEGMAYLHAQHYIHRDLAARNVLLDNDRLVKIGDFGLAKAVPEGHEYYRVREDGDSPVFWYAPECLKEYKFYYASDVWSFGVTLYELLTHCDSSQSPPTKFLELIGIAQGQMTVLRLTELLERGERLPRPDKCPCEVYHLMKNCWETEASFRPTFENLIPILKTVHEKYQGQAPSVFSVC

Usually IC50 stands for the midpoint of a concentration-inhibition curve. In the case of `CC(C)(O)C(=O)N1CCN(c2ccc(C(F)(F)F)c(C3=C(c4c[nH]c5ccccc45)C(=O)NC3=O)c2)CC1`, the IC50 in [1] came out at 344 nM; in series [2], 2110 nM.

By EC50 is commonly meant the concentration needed to bring the measured effect to its halfway point. Higher therefore signals a less potent agent. Consider `N#CC(C#N)=Cc1ccc(-c2nc3cnc4[nH]ccc4c3n2C2CCCCC2)o1`, for which the 50% inhibitory concentration (IC50) stood at 4 nM in series [3]; 0.39 nM in [5]; 4 nM in series [1]; 188 nM in series [10]; 14 nM in series [2]. Further, in series [4], the Drug metabolism entry was “Metabolite_Detected”. In addition, the EC50 in [6] amounted to 630 nM; in series [7], 5790 nM; in series [11] it was 7660 nM; in series [12] it was 678 nM. Besides, in series [8], the remaining at 3 h, 100 µM stood at 11%. In [9], the remaining at 3 h, 1 µM was 1.5%.

Usually solubility stands for how much of the substance goes into solution per volume. A lower solubility goes with a poorly soluble substance. As a reminder, the half-life is how long it takes for the measured level to halve. Low values mean rapid decline, high ones slow decline. `CN1CCN(C(=O)C(C#N)=Cc2ccc(-c3nc4cnc5[nH]ccc5c4n3C3CCCCC3)o2)CC1`: the IC50 came to 14 nM in series [3]; 0.74 nM in [5]; 117 nM in series [1]; 765 nM in [10]; 791 nM in [2]. The 50% effective concentration (EC50) in [6] was over 10000 nM; in series [7] it was over 10000 nM; in series [11], over 10000 nM; in series [12], 257 nM. For the same compound, in series [8], the remaining at 3 h, 100 µM amounted to 6.9%. In series [9], the remaining at 3 h, 1 µM came to 47%. Also, in series [13], the solubility came to 248 µM (≈ 120 µg/mL). Also, the half-life at 1 µM in [14] is 3 h.

Regarding `NC(=O)CCc1ccc(-c2nc3cnc4[nH]ccc4c3n2C2CCCCC2)o1`, the IC50 in series [3] is 59 nM.

As for `CN(C)C(=O)CCc1ccc(-c2nc3cnc4[nH]ccc4c3n2C2CCCCC2)o1`, the IC50 in [3] was 181 nM; in series [5], 48 nM; in series [1], 45 nM; in series [10], 183 nM; in [2], 139 nM.

Compound `N#CC(C#N)=Cc1ccc(-c2nc3cnc4[nH]ccc4c3n2C2CCCCC2)cc1` returned an IC50 in series [3] of 30 nM. For the same compound, the Drug metabolism entry in series [4] was “Metabolite_Detected”.

Take `N#C/C=C/c1ccc(-c2nc3cnc4[nH]ccc4c3n2C2CCCCC2)cc1`: in series [3], the IC50 turned out to be 390 nM.

In series [3], `N#CC(C#N)=Cc1cccc(-c2nc3cnc4[nH]ccc4c3n2C2CCCCC2)c1` displayed an IC50 of 11 nM. In addition, in series [4], the Drug metabolism result was “Metabolite_Detected”.

In the case of `NC(=O)CCc1ccc(-c2nc3cnc4[nH]ccc4c3n2C2CCCCC2)cc1`, the IC50 in series [3] came to 499 nM. In other words, the sub-micromolar range.

In [3], `CN(C)C(=O)CCc1ccc(-c2nc3cnc4[nH]ccc4c3n2C2CCCCC2)cc1` came in with an IC50 of 642 nM.

With `N#CCCc1ccc(-c2nc3cnc4[nH]ccc4c3n2C2CCCCC2)o1`, the IC50 in series [3] was 129 nM; in [5] it was 10 nM; in [1], 16 nM; in [10], 48 nM; in series [2], 25 nM.

`NC(=O)/C=C/c1ccc(-c2nc3cnc4[nH]ccc4c3n2C2CCCCC2)cc1` yielded a 50% inhibitory concentration (IC50) in [3] of over 1000 nM. Also, in [15], the solubility result is recorded as “Insoluble”.

As to `CN(C)C(=O)C(C#N)=Cc1ccc(-c2nc3cnc4[nH]ccc4c3n2C2CCCCC2)o1`, the EC50 in [7] was over 10000 nM. Also, in series [8], the remaining at 3 h, 100 µM amounted to 58%. Besides, the remaining at 3 h, 1 µM in series [9] turned out to be 49.4%. The compound also returned a solubility in series [13] of 56 µM (≈ 24 µg/mL). Moreover, the half-life at 1 µM in series [14] is 3 h.

As for `N#C/C=C/c1ccc(-c2nc3cnc4[nH]ccc4c3n2C2CCCCC2)o1`, the IC50 in series [3] is 27 nM; in [5], 0.21 nM; in series [1], 12 nM; in series [10], 53 nM; in [2] it was 44 nM. Also, the EC50 in series [6] was 7710 nM; in [7], 13300 nM; in series [11], over 10000 nM; in series [12], 740 nM. The remaining at 3 h, 100 µM in series [8] was 53.9%. Further, the remaining at 3 h, 1 µM in series [9] stood at 98.8%.

In [3], `CNC(=O)C(C#N)=Cc1ccc(-c2nc3cnc4[nH]ccc4c3n2C2CCCCC2)o1` yielded an IC50 of 23 nM.

In series [3], `N#CCCc1ccc(-c2nc3cnc4[nH]ccc4c3n2C2CCCCC2)cc1` registered an IC50 of 436 nM.

With `NC(=O)CCc1cccc(-c2nc3cnc4[nH]ccc4c3n2C2CCCCC2)c1`, half-maximal inhibition in series [3] (IC50) required 490 nM.

`CN(C)C(=O)C(C#N)=Cc1ccc(-c2nc3cnc4[nH]ccc4c3n2C2CCCCC2)cc1`: the midpoint of inhibition in [3], the IC50, lay at 571 nM.

Compound `CN(C)C(=O)C(C#N)=Cc1ccc(-c2nc3cnc4[nH]ccc4c3n2C)o1` registered an IC50 in [3] of 368 nM.

`NC(=O)/C=C/c1ccc(-c2nc3cnc4[nH]ccc4c3n2C2CCCCC2)o1` gave an IC50 in [3] of 129 nM. This IC50 lies about 2.9-fold lower than the previous one.

`CN(C)C(=O)C(C#N)=Cc1cccc(-c2nc3cnc4[nH]ccc4c3n2C2CCCCC2)c1`: half-maximal inhibition in [3] (IC50) was put at 205 nM. This IC50 is about 1.6-fold higher than that of the compound before.

Consider `N#C/C=C/c1cccc(-c2nc3cnc4[nH]ccc4c3n2C2CCCCC2)c1`, for which the midpoint of inhibition in series [3], the IC50, lay at 135 nM.

`CN(C)C(=O)CCc1cccc(-c2nc3cnc4[nH]ccc4c3n2C2CCCCC2)c1` had an IC50 in series [3] of 678 nM.

Turning to `CN(C)C(=O)C(C#N)=Cc1ccc(-c2nc3cnc4c(ccn4C)c3n2C2CCCCC2)o1`, in series [3], the IC50 is over 10000 nM.

Compound `N#CCCc1cccc(-c2nc3cnc4[nH]ccc4c3n2C2CCCCC2)c1` came in with an IC50 in [3] of 505 nM.
